Data taken from US9765035B2 (priority 2013, dated 2017).
Like-named read-outs stand apart in the source and are kept apart here.

Target: human PRMT8 (Homo sapiens, UniProt Q9NR22)
Test: biochemical
Text: General Materials. S-adenosylmethionine (SAM), S-adenosylhomocysteine (SAH), bicine, Tween20, dimethylsulfoxide (DMSO), bovine skin gelatin (BSG), isopropyl-β-D-thiogalactopyranoside (IPTG), and Tris(2-carboxyethyl)phosphine hydrochloride solution (TCEP) were purchased from Sigma-Aldrich at the highest level of purity possible. ^3H-SAM was purchase from American Radiolabeled Chemicals with a specific activity of 80 Ci/mmol. 384-well streptavidin Flashplates were purchased from PerkinElmer.
Substrates. Peptide representative of human histone H4 residues 31-45 was synthesized with an N-terminal linker-affinity tag motif and a C-terminal amide cap by 21st Century Biochemicals. The peptide was purified by high-performance liquid chromatography (HPLC) to greater than 95% purity and confirmed by liquid chromatography mass spectrometry (LC-MS). The sequence was Biot-Ahx-[…]-amide (SEQ ID NO.:8).
The resulting construct encodes an N-terminal GST tag and a thrombin cleavage sequence
Protein Expression. E. coli (BL21(DE3) Gold, Stratagene) made competent by the CaCl2 method were transformed with the PRMT8 construct and ampicillin selection. Protein over-expression was accomplished by growing the PRMT8 expressing E. coli clone and inducing expression with 0.3 mM IPTG at 16° C. The culture was grown for 12 hours, harvested by centrifugation, and stored at −80° C. for purification.
Protein Purification. […] GST-tagged PRMT8 was eluted with 50 mM Tris, 2 mM glutathione, pH 7.8. Pooled fractions were cleaved by thrombin (10 U) and dialysed in buffer A. GST was removed by reloading the cleaved protein sample onto glutathione sepharose column and PRMT8 was collected in the flow-through fractions. PRMT8 was purified further by ceramic hydroxyapatite chromatography. The column was washed with 50 mM phosphate buffer, 100 mM NaCl, 5% glycerol, 5 mM β-mercaptoethanol, pH 7.8 and PRMT8 was eluted by 100 mM phosphate in the same buffer. Protein was concentrated and buffer was exchanged to 50 mM Tris, 300 mM NaCl, 10% glycerol, 5 mM β-mercaptoethanol, pH 7.8 by ultrafiltration. The purity of recovered protein was 89%.
General Procedure for PRMT8 Enzyme Assays on Peptide Substrates. The assays were all performed in a buffer consisting of 20 mM Bicine (pH=7.6), 1 mM TCEP, 0.005% BSG, and 0.002% Tween 20, prepared on the day of use. Compounds in 100% DMSO (1 ul) were spotted into a polypropylene 384-well V-bottom plates (Greiner) using a Platemate Plus outfitted with a 384-channel head (Thermo Scientific). DMSO (1 ul) was added to Columns 11, 12, 23, 24, rows A-H for the maximum signal control and 1 ul of SAH, a known product and inhibitor of PRMT8, was added to columns 11, 12, 23, 24, rows I-P for the minimum signal control. A cocktail (40 ul) containing the PRMT8 enzyme was added by Multidrop Combi (Thermo-Fisher). The compounds were allowed to incubate with PRMT8 for 30 min at room temperature, then a cocktail (10 ul) containing ^3H-SAM and peptide was added to initiate the reaction (final volume=51 ul). The final concentrations of the components were as follows: PRMT8 was 1.5 nM, ^3H-SAM was 50 nM, non-radiolabeled SAM was 550 nM, peptide was 150 nM, SAH in the minimum signal control wells was 1 mM, and the DMSO concentration was 2%. The assays were stopped by the addition of non-radiolabeled SAM (10 ul) to a final concentration of 400 uM, which dilutes the ^3H-SAM to a level where its incorporation into the peptide substrate is no longer detectable. 50 ul of the reaction in the 384-well polypropylene plate was then transferred to a 384-well Flashplate and the biotinylated peptides were allowed to bind to the streptavidin surface for at least 1 hour before being washed once with 0.1% Tween20 in a Biotek EL×405 plate washer. […]

[1] = biochemical evaluation, peptide substrate, read-out: PRMT8 IC50
[2] = single experiment or average of multiple experiments, read-out: PRMT8 biochemical evaluation (numerical)

human PRMT8, sequence (Q9NR22 whole entry): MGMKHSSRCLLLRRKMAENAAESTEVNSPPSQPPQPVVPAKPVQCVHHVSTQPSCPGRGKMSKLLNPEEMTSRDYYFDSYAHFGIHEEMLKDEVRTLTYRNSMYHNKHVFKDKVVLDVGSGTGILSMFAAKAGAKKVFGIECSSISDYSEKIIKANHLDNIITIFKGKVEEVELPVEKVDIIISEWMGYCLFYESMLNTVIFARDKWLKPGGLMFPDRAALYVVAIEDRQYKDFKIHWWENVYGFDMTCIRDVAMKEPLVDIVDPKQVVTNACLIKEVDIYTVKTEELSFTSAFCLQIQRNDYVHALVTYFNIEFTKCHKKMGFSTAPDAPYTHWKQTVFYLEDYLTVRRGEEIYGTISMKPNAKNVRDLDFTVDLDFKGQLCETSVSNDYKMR

SMILES	IC50 [1] [nM]	IC50 [2] [nM]
CN(CCN)Cc1n[nH]c2ccc(OCc3ccccc3)cc12 [Compound 1B]	101 to 1000	267
CC(C)COc1ccc2[nH]nc(CN(C)CCN)c2c1 [Compound 2, N1-((5-iso-butoxy-1H-indazol-3-yl)methyl)-N1-methylethane-1,2-diamine]	101 to 1000	458
CNCCN(C)Cc1n[nH]c2ccc(OCC(C)c3ccccc3)cc12 (centres unmarked) [Compound 19]	< 100	–
CNCCN(C)Cc1n[nH]c2ccc(OCc3ccn(C)n3)cc12 [Compound 20]	< 100	–
CNCCN(C)Cc1n[nH]c2cccc(OCc3ccccc3)c12 [Compound 21]	< 100	67.5
CNCCN(C)Cc1n[nH]c2ccc(Oc3cccc(OC)c3)cc12 [Compound 22]	–	80.2
CNCCN(C)Cc1n[nH]c2ccc(OCc3ccc(C(C)=O)cc3)cc12 [Compound 23]	–	42.8
CNCCN(C)Cc1n[nH]c2cccc(OCCC(C)C)c12 [Compound 31]	101 to 1000	–
CNCCN(C)Cc1n[nH]c2ccc(OCc3ccn(CC(C)C)n3)cc12 [Compound 33]	1010 to 3000	273
CNCCN(C)Cc1n[nH]c2ccc(OC)cc12 [Compound 35]	–	1860
CNCCN(C)Cc1n[nH]c2cccc(OCCC(O)CO)c12 (centres unmarked) [Compound 40]	1010 to 3000	–
CNCCN(C)Cc1n[nH]c2cccc(OCCCC(O)CO)c12 (centres unmarked) [Compound 41, 5-((3-((methyl(2-(methylamino)ethyl)amino)methyl)-1H-indazol-4-yl)oxy)pentane-1,2-diol]	1010 to 3000	–
CNCCN(C)Cc1n[nH]c2ccc(C(C)C)cc12 [Compound 42, N^1-((5-isopropyl-1H-indazol-3-yl)methyl)-N^1,N^2-dimethylethane-1,2-diamine]	101 to 1000	2850
CNCCN(C)Cc1n[nH]c2ccc(N3CCC4(CCCCC4)CC3)cc12 [Compound 43, N^1-((5-(3-azaspiro[5.5]undecan-3-yl)-1H-indazol-3-yl)methyl)-N^1,N^2-dimethylethane-1,2-diamine]	101 to 1000	2000
CNCCN(C)Cc1n[nH]c2ccc(C3CCOCC3)cc12 [Compound 44, N^1,N^2-dimethyl-N^1-((5-(tetrahydro-2H-pyran-4-yl)-1H-indazol-3-yl)methyl)ethane-1,2-diamine]	< 100	236
CNCCN(C)Cc1n[nH]c2ccc(C3=CCOCC3)cc12 [Compound 45]	< 100	133
CNCCN(C)Cc1n[nH]c2ccc(N3CCCCC3)cc12 [Compound 46, N^1,N^2-dimethyl-N^1-((5-(piperidin-1-yl)-1H-indazol-3-yl)methyl)ethane-1,2-diamine]	< 100	98.8
CNCCN(C)Cc1n[nH]c2ccc(C3CCCCC3)cc12 [Compound 47, N^1-((5-cyclohexyl-1H-indazol-3-yl)methyl)-N^1,N^2-dimethylethane-1,2-diamine]	≤ 100	91.8
CNCCN(C)Cc1n[nH]c2ccc(C3=CCCCC3)cc12 [Compound 48]	≤ 100	83.4
CNCCN(C)Cc1n[nH]c2ccc(Oc3ccccc3C(F)(F)F)cc12 [Compound 49]	–	45.4
CNCCN(C)Cc1n[nH]c2ccc(OCC3CCOCC3)cc12 [Compound 50]	–	38.7
